According to patent US11332483B2, “Naphthoquinone containing gold carbene complexes and methods of uses thereof” (BOARD OF REGENTS, THE UNIVERSITY OF TEXAS SYSTEM, priority 2017, dated 2022):
Where two headings read alike, the source gives them in different places.

Experiments:
[1] = tested on: A549 lung cancer cells; test: Cell proliferation (MTT) assay in A549 lung cancer cells; type: cell-based, human; settings: for Fold Difference relative to 1: A549 IC50 relative to complex 1
Experimental: (§1) Cells were harvested and seeded into 96-well culture plates (Costar 07-200-90) in 100 μL of culture media. They were allowed to incubate overnight at 37° C. in the presence of 5% CO2. A549 was seeded at a density of 1000 cells/well, A2780 at 2500 cells/well, A2780CP at 3000 cells/well, and PC-3 at 2000 cells/well. The next day, appropriate serial dilutions of drug stocks in culture media were made. To each well of a 96 well plate was added 100 μL of the appropriate solution. After a total of three days, a […] aliquot of 3 mg/mL tetrazolium dye, 344,5-dimethylthiazol-2-yl)-2,5-diphenyltetrazolium bromide (Alfa Aesar L11939) was added to each well, followed by a 4 hr incubation period at 37° C. The medium was then removed, the resulting formazan was dissolved in […] DMSO and the respective absorbances were measured at 560-650 nm using a microplate reader (Molecular Devices, Sunnyvale, Calif.). Absorbance values were corrected for background and then normalized to wells containing untreated cells to allow for plate-to-plate comparisons. The data are shown as mean inhibition of proliferation or growth as a percentage of control cells and are from 2-3 replicate experiments. Resulting dose response curves were subjected to linear regression analysis (Origin by OriginLab, Inc.) for determination of IC50 values.

[2] = tested on: thioredoxin reductase (TrxR) in A549 cells; test: Lipoate reduction assay of thioredoxin reductase activity in live cells; type: cell-based, human; settings: for inhibition of TrxR (lipoate reduction): 6 h; for TrxR activity by lipoate reduction, time and dose dependence: A549, in words
Experimental: To assess whether any or all of the present gold complexes could serve as TrxR inhibitors, standard tests involving the reduction of the oxidized form of the cell-permeable cofactor lipoate to its corresponding reduced form, dihydrolipoate, were carried out. […] [Cl] and 5 (cocktail), auranofin, and doxorubicin for 6 h. Post treatment, the live cells were monitored colorimetrically over 180 min for their ability to reduce lipoate (FIG. 5A).
Cells were harvested and seeded at a density of 10,000 cells/well A549 in 96-well culture plates. They were then incubated overnight at 37° C. and 5% CO2. The next day, appropriate serial dilutions of drug stock in culture media were performed, and 100 μL of the appropriate solution were added to each well. Cells were returned to the incubator for 6 h. Afterwards, the liquid was then removed from each well by vacuum aspiration and replaced by 100 μL of 5 mM lipoate (Tokyo Chemical Industry Co., Ltd. L0207) and 1 mM DTNB (Acros Organics 117540050) in HBSS (Life tech 14025-092). The absorbance of each well at […] was recorded immediately and once every 20 min for three h on a microplate reader (Molecular Devices, Sunnyvale, Calif.). Plates were covered with aluminum foil between readings.

[3] = tested on: A549 cells; test: Detection of intracellular ROS by flow cytometry (CM-H2DCFDA); type: cell-based, human; settings: for intracellular ROS increase: A549, dose responsive, 6 h, in words
Experimental: To establish whether or not the complexes of this disclosure would increase intracellular ROS levels, A549 cells were treated with each complex in a dose responsive manner.
Tumor cells (1×10^6) were plated in a 6-well plate overnight and then incubated with media containing various complexes described at concentrations of 0.625-2.5 μM. Control cells were treated with vehicle only. After a 6 h. incubation, the cells were washed with PBS, detached with 0.250 mL 1× trypsin, collected in a 15 mL conical tube, and pelleted by centrifugation (3 min @ 300 g) at 5° C. The resulting pellet was again washed 2× with cold PBS and pelleted at 5° C. […] The cells were then pelleted, washed with 2 mL PBS, and re-suspended in PBS containing 2 μg/mL propidium iodide (PI, Chemodex P0023) for a final cell concentration of 0.5×10^6 cells/mL. Control samples of unstained cells, cells stained with only CM-H2DCFDA, and cells stained with only PI were also prepared. Each sample was added to one well of a 96-well plate. Samples were then subjected to FACS analysis using a Millipore Guava easyCyte 8 and analyzed using the Guava inCyte software.

[4] = tested on: A549 lung cancer cells; test: ICP-MS detection of intracellular Au (cellular uptake)
Experimental: Roughly 7−8×10^6 cells were grown to 70-80% confluence in T-75 cell culture flasks (Thermo 130190) and treated with respective compound in RPMI medium supplemented with 10% FBS and antibiotics for the desired incubation time. The medium was then removed and cells were washed with 8 mL 1× warm PBS. 2 mL 1×PBS was then added to each flask, and the cells were removed by scraping. Each cell suspension was then pipetted into a clean, labeled 15 mL centrifuge tube (Thermo 339650). Cells were pelleted by centrifuging at 1,000 rpm for 5 min in an Eppendorf 5804 with a swing-bucket rotor. The supernatant was removed by vacuum aspiration, and the pellet was resuspended in 50 μL autoclaved deionized water. Suspension/lysates were then kept at −80° C. until further use. After thawing, the lysates were then sonicated using a Branson Digital Sonifier, and 5 μL aliquots were taken for determination of protein content of the sample. Lysates were digested with 80 μL aqua regia and heated to 65° C. for 1 h. Digested lysates were diluted with 4 mL 3% Trace Metal Grade HCl and gold content was measured on a Perkin Elmer NexION 300× set to detect gold at 197 m/z. Gold concentrations were quantified using the linear range of a standard curve generated by serial dilution of an ICP-MS gold standard (Ricca MSAU1KH-100) in 3% HCl. Values were then normalized to protein content as determined using a Modified Lowry Protein Assay Kit (Thermo 23240) and known concentrations of bovine serum albumin (Fisher 9048-46-8).
The Modified Lowry Assay was used to determine the protein content of each sample for normalization purposes. The standard curve for each run was made from a 2-fold serial dilution of fresh 5 mg/mL BSA solution. Aliquots were diluted to within the linear range of the standard curve using autoclaved DI water, and subjected to the Modified Lowry Assay in round-bottomed 96-well clear plates (Fisher 12565500). […] All other aspects of the procedure were as detailed in the microplate procedure instructions that come with the kit.

[5] = Electrochemical analysis (differential pulse voltammetry) in DMSO; type: physicochemical; settings: 0.1M [N(nBu)4][PF6], 0.1 mM analyte, vs SCE
Experimental: [Cl] (Guth et al., 2011; Gómez et al., 2003).
1,3-Dimesitylnapthoquinimidazolium chloride (Sanderson et al., 2006; Tennyson et al., 2010), (1,3-dimesityl-4,5-naphthoquino-imidazol-2-ylidene)-silver(I) chloride (Sanderson et al., 2006; Tennyson et al., 2010), (C4H2S)AuCl (Hashmi, et al., 2010) were prepared according to the literature procedures. All other reagents were purchased from commercial sources and used as received, including: [((CH3)3Si)2N]Na (NaHMDS) and silver(I) oxide. CD2Cl2 (99.9%) was purchased from Acros Laboratories in glass ampules and used as received. Solvents were either dried with a solvent purification system from the Inert Innovative Technology, Inc. (dichloromethane, diethyl ether, hexanes, tetrahydrofuran and toluene) or freshly distilled over 3 Å molecular sieves and degassed using three consecutive freeze-pump-thaw cycles prior to use. UV-vis spectra were obtained at ambient temperature with a Hewlett-Packard 8452A diode array spectrophotometer with molar absorptivities reported in M^−1 cm^−1. ^1H and ^13C NMR spectra were recorded on Bruker 300 MHz spectrometer. Spectra were referenced to the residual solvent as an internal standard, for ^1H NMR: CD2Cl2, 5.32 ppm and ^13C NMR: CD2Cl2, 53.84 ppm. High-resolution mass spectra (HRMS) were obtained with an Agilent Technologies 6530 Accurate Mass Q-TOF LC/MS (ESI) and are reported as m/z (relative intensity). Electroanalytical measurements were performed on a CHI620E electrochemical workstation using a silver wire quasi-reference electrode, a platinum disk working electrode and a Pt wire auxiliary electrode in a three-electrode cell under an atmosphere of nitrogen. […] All potentials listed herein were determined by differential pulse voltammetry and referenced to a saturated calomel electrode (SCE) by shifting ferrocene^0/+ to 0.435 V (DMSO) (Aranzaes et al., 2006). Spectroelectrochemistry measurements were obtained at ambient temperature with a custom designed three-electrode cell using Hewlett-Packard 8452A diode array spectrophotometer and CHI620E. Elemental analyses were performed by Midwest Microlab, LLC in Indianapolis, Ind. […] Trypsin (Hyclone SH30236.01) and Dulbecco's Phosphate Buffer Saline (Sigma R5886) were used for general cell maintenance and harvesting. Cell lines were obtained from the ATCC (A549 and PC-3) and Prof. Zahid Siddik at MD Anderson (A2780 and A2780CP). Thiazolyl blue tetrazolium bromide (Alfa Aesar L11939) was used for cell proliferation assays. Cell culture plastic ware consisted of generic T-75 flasks, 80.5 mm diameter culture dishes, and treated 96-well plates.

[6] = tested on: Panc-02 cells
[7] = tested on: 2780CP ovarian (multi-drug resistant); test: Cell proliferation (MTT) assay in 2780CP ovarian cells; type: cell-based; settings: Table 3; error is standard error of the mean
Experimental: (§2) Further anti-proliferation studies were carried out with complex 1 and its naphthoquinone component 4[H][Cl] using the following cell lines: A2780 ovarian (a wt-p53 cell line sensitive to platinum treatment), 2780CP ovarian (isogenic to A2780 but expressing multi-drug resistance (MDR)), and PC-3 prostate (p53 null) (Table 3).
as §1, with “The data are shown as mean inhibition of proliferation or growth as a percentage of control cells and are from 2-3 replicate experiments. Resulting dose response curves were subjected to linear regression analysis (Origin by OriginLab, Inc.) for determination of IC50 values.” left out

[8] = tested on: PC-3 prostate (p53 null); test: Cell proliferation (MTT) assay in PC-3 prostate cells; type: cell-based; settings: Table 3; error is standard error of the mean
Experimental: as §2
as §1, with “The data are shown as mean inhibition of proliferation or growth as a percentage of control cells and are from 2-3 replicate experiments. Resulting dose response curves were subjected to linear regression analysis (Origin by OriginLab, Inc.) for determination of IC50 values.” left out

[9] = tested on: A2780 ovarian (wt-p53, platinum sensitive); test: Cell proliferation (MTT) assay in A2780 ovarian cells; type: cell-based; settings: Table 3; error is standard error of the mean
Experimental: as §2
as §1, with “The data are shown as mean inhibition of proliferation or growth as a percentage of control cells and are from 2-3 replicate experiments. Resulting dose response curves were subjected to linear regression analysis (Origin by OriginLab, Inc.) for determination of IC50 values.” left out

[10] = tested on: A549 cells; settings: A549, 24 h
Experimental: Control cells were treated with vehicle only. At 24 h, the media was collected and the cells were washed with PBS. The PBS washing was collected and the attached cells were then subjected to 0.5× trypsin (diluted with PBS) for 2 min. All media and washings were collected, pelleted by centrifugation (3 min @ 300 g) and washed twice with cold PBS. […] After this, 100 μL of cell suspension was added to 1.5 mL centrifuge tubes, followed by 5 μL each of Annexin V-FITC and propidium iodide (PI, 50 μg/mL) solution. Control samples of unstained cells, cells stained with only Annexin V-FITC, and cells stained with only PI were also prepared. Samples were allowed to incubate in the dark for 15 min at ambient temperature. After incubation, each sample was diluted with 200 μL of Annexin V binding buffer, and the resulting 300 μL sample was added to one well of a 96-well plate. Samples were then subjected to FACS analysis using a Millipore Guava easyCyte 8 and analyzed using Guava inCyte software.

[11] = A549 lung cancer cells, MTT, 72 h, read-out: IC50
[12] = A549, low concentrations (0.1-0.6 μM)
[13] = A549, higher concentrations (1.25-5.0 μM)

| Structure (SMILES) | Fold Difference relative to 1 [1] | IC50 [1, 11] [µM] | inhibition of TrxR (lipoate reduction) [2, 12] | intracellular ROS increase [3] | E1/2 (V) DPV, first reduction, formation of semiquinone radical [5] [V] | E1/2^b (V) DPV, second reduction, formation of quinone dianion [5] [V] | TrxR activity by lipoate reduction, time and dose dependence [2] | inhibition of TrxR (lipoate reduction) [2, 13] | also measured |
| --- | --- | --- | --- | --- | --- | --- | --- | --- | --- |
| CC(=O)OC[C@H]1O[C@@H]([S-])[C@H](OC(C)=O)[C@@H](OC(C)=O)[C@@H]1OC(C)=O.CCP(CC)CC.[Au+] [Auranofin, auranofin] | 22.9 | 1.67 ± 0.05 | inhibition of TrxR was apparent | minimal or no ROS increase | – | – | – | – | increase in intracellular Au concentrations as compared to complex 1 [4]: 2-5 fold |
| Cc1cc(C)c(-n2c3c([n+](-c4c(C)cc(C)cc4C)[c]2[Au-][c]2n(-c4c(C)cc(C)cc4C)c4c([n+]2-c2c(C)cc(C)cc2C)C(=O)c2ccccc2C4=O)C(=O)c2ccccc2C3=O)c(C)c1.[Cl-] [Compound 2] | 1 | – | – | performed similarly | −0.46 | −1.31 | performed similarly | – | presence of CRT on cells ([6]; Panc-02, 0.1 μM): 6.1±1.6 % of cells; presence of CRT on cells ([6]; Panc-02, 1.0 μM): 33.4±5.8 % of cells |
| Cc1cc(C)c(-n2c3c([n+](-c4c(C)cc(C)cc4C)[c]2[Au-][Cl])C(=O)c2ccccc2C3=O)c(C)c1 [Compound 3, (1,3-Dimesityl-4,5-naphthoquino-imidazol-2-ylidene)-gold(I) Chloride] | 165 | 12.1 | – | minimal or no ROS increase | −0.47 | −1.31 | – | remained inactive | intracellular Au levels (ICP-MS) [4]: no intracellular Au was detected |
| Cc1cc(C)c(-n2c[n+](-c3c(C)cc(C)cc3C)c3c2C(=O)c2ccccc2C3=O)c(C)c1.[Cl-] [Compound 4[H][Cl], 1,3-Dimesitylnaphthoquinimidazolium chloride, reference compound] | 13.6 | 0.99 ± 0.12 | – | – | −0.38 | −1.15 | – | became evident | IC50 ([1]; A549 lung cancer cells, MTT, 72 h, listed as 4, read-out: IC50): 0.994 µM; IC50 ([1]; Table 3, error is standard error of the mean, read-out: IC50 A549 Lung): 0.994 ± 0.12 µM; IC50 [7]: 0.626 ± 0.117 µM; IC50 [8]: 0.136 ± 0.02 µM; fluorescence associated cell population shift (intracellular ROS increase) ([3]; A549, 2.5 μM, 6 h incubation): ~11 fold; IC50 [9]: 0.159 ± 0.058 µM |
| COc1cccc2c1C(=O)c1c(O)c3c(c(O)c1C2=O)C[C@@](O)(C(=O)CO)C[C@@H]3O[C@H]1C[C@H](N)[C@H](O)[C@H](C)O1 [Doxorubicin, doxorubicin] | 1.41 | – | little to no inhibition | minimal or no ROS increase | – | – | no inhibition of activity | remained inactive | IC50 ([1]; Homo sapiens, A549 lung cancer cells, MTT, 72 h, read-out: IC50): 0.103 ± 0.023 µM; induction of apoptosis (annexin-V/PI) [10]: provided similar results in both the early and late stage apoptotic quadrants |
| O=C1[O][Pt]2([NH][C@@H]3CCCC[C@H]3[NH]2)[O]C1=O [oxaliplatin, reference compound] | – | – | – | – | – | – | – | – | presence of CRT on cells ([6]; Panc-02, 300 μM): 18.6±2.8 % of cells |
